Reference: patent US20240124460A1, “METHODS AND COMPOSITIONS FOR TARGETED PROTEIN DEGRADATION” (Ranok Therapeutics (Hangzhou) Co. Ltd., priority 2020, published 2024)

Assays:
[1] = test system: U-87 MG human glioblastoma; assay: U87 MG CCK-8 proliferation assay; format: cell-based; conditions: Homo sapiens, U-87 MG, 72 h, U-87 MG cells, read-out: U87MG CCK-8
Protocol: (§1) The following cancer cell lines were employed: A549 human lung carcinoma (ATCC, #CCL-185); BT-474 human breast carcinoma (ATCC, #HTB-20); MDA-MB-231 human breast adenocarcinoma (ATCC, #CRM−HTB-26); MDA-MB-468 human breast adenocarcinoma (ATCC, #HTB-132); MV-4-11 human acute myeloid leukemia (ATCC, #CRL-9591); and U-87 MG human glioblastoma (ATCC, #HTB-14). Cell lines were cultured essentially according to ATCC recommendations.
(§2) 3-fold serial dilutions of each test compound were prepared ranging from 20 μM to 1.02 nM.
(§3) % Inhibition=100−(D−B)/(S−B)*100%. • S: Absorbance of cells treated with DMSO • D: Absorbance of compound-treated cells • B: Absorbance of medium with DMSO without cells

[2] = test system: MV-4-11 human acute myeloid leukemia; assay: MV-4-11 CCK-8 proliferation assay; format: cell-based; conditions: Homo sapiens, MV4-11; MV-4-11 cells, 72 hr
Protocol: as §1, §2, §3

SMILES	EC50 [1] [nM]	EC50 [2] [nM]
CCOc1cc(N2CCN(Cc3ccc(-n4c(O)nnc4-c4cc(C(C)C)c(O)cc4O)cc3)CC2)ccc1Nc1ncc2c(n1)N(C1CCCC1)c1ccccc1C(=O)N2C [Compound 188, 11-cyclopentyl-2-((4-(4-(4-(3-(2,4-dihydroxy-5-isopropylphenyl)-5-hydroxy-4H-1,2,4-triazol-4-yl)benzyl)piperazin-1-yl)-2-ethoxyphenyl)amino)-5-methyl-5,11-dihydro-6H-benzo[e]pyrimido[5,4-b][1,4]diazepin-6-one]	> 1000	100 to 1000
CCNC(=O)c1nnc(-c2cc(CC)c(O)cc2OC)n1-c1ccc(CN2CCN(CC3CCN(C(=O)C4CCN(c5ccc(Nc6ncc7c(n6)N(S(C)(=O)=O)c6ccccc6C(=O)N7C)c(OCC)c5)CC4)CC3)CC2)cc1 [Compound 171, 4-(4-((4-((1-(1-(3-ethoxy-4-((5-methyl-11-(methylsulfonyl)-6-oxo-6,11-dihydro-5H-benzo[e]pyrimido[5,4-b][1,4]diazepin-2-yl)amino)phenyl)piperidine-4-carbonyl)piperidin-4-yl)methyl)piperazin-1-yl)methyl)phenyl)-N-ethyl-5-(5-ethyl-4-hydroxy-2-methoxyphenyl)-4H-1,2,4-triazole-3-carboxamide]	> 1000	> 1000
CCOc1cc(N2CCC(C(=O)NCCCOc3ccc(-c4ccc(NC(=O)c5ccc(OC)c(-c6cccc(OC)c6)c5)cc4)c(OCCCN(C)C)c3)CC2)ccc1Nc1ncc2c(n1)N(C)c1ccccc1C(=O)N2C [Compound 152, N-(3-((4′-(3′,6-dimethoxy-[1,1′-biphenyl]-3-carboxamido)-2-(3-(dimethylamino)propoxy)-[1,1′-biphenyl]-4-yl)oxy)propyl)-1-(4-((5,11-dimethyl-6-oxo-6,11-dihydro-5H-benzo[e]pyrimido[5,4-b][1,4]diazepin-2-yl)amino)-3-ethoxyphenyl)piperidine-4-carboxamide]	> 1000	> 1000
CCOc1cc(N2CCC(C(=O)N3CCC(COc4ccc(-c5ccc(NC(=O)c6ccc(OC)c(-c7cccc(OC)c7)c6)cc5)cc4)CC3)CC2)ccc1Nc1ncc2c(n1)N(S(C)(=O)=O)c1ccccc1C(=O)N2C [Compound 146, N-(4′-((1-(1-(3-ethoxy-4-((5-methyl-11-(methylsulfonyl)-6-oxo-6,11-dihydro-5H-benzo[e]pyrimido[5,4-b][1,4]diazepin-2-yl)amino)phenyl)piperidine-4-carbonyl)piperidin-4-yl)methoxy)-[1,1′-biphenyl]-4-yl)-3′,6-dimethoxy-[1,1′-biphenyl]-3-carboxamide]	> 1000	> 1000
CCOc1cc(N2CCC(C(=O)NCCCOc3ccc(-c4ccc(NC(=O)c5ccc(OC)c(-c6cccc(OC)c6)c5)cc4)cc3)CC2)ccc1Nc1ncc2c(n1)N(S(C)(=O)=O)c1ccccc1C(=O)N2C [Compound 148, N-(3-((4′-(3′,6-dimethoxy-[1,1′-biphenyl]-3-carboxamido)-[1,1′-biphenyl]-4-yl)oxy)propyl)-1-(3-ethoxy-4-((5-methyl-11-(methylsulfonyl)-6-oxo-6,11-dihydro-5H-benzo[e]pyrimido[5,4-b][1,4]diazepin-2-yl)amino)phenyl)piperidine-4-carboxamide]	> 1000	> 1000
CCOc1cc(N2CCC(C(=O)N3CCC(CN4CCN(Cc5ccc(-n6c(C(=O)NC(C)C(F)(F)F)nnc6-c6cc(CC)c(OC(=O)C(C)C)cc6O)cc5)CC4)CC3)CC2)ccc1Nc1ncc2c(n1)N(S(C)(=O)=O)c1ccccc1C(=O)N2C (stereo not shown) [Compound 161, 4-(4-(4-((4-((1-(1-(3-ethoxy-4-((5-methyl-11-(methylsulfonyl)-6-oxo-6,11-dihydro-5H-benzo[e]pyrimido[5,4-b][1,4]diazepin-2-yl)amino)phenyl)piperidine-4-carbonyl)piperidin-4-yl)methyl)piperazin-1-yl)methyl)phenyl)-5-((1,1,1-trifluoropropan-2-yl)carbamoyl)-4H-1,2,4-triazol-3-yl)-2-ethyl-5-hydroxyphenyl isobutyrate]	100 to 1000	< 100

More lines, now with the values ahead:

EC50 [1] [nM]	EC50 [2] [nM]	SMILES
< 100	< 100	CCOc1cc(N2CCC(CN3CCC(CN4CCN(Cc5ccc(-n6c(C(=O)NC(C)C(F)(F)F)nnc6-c6cc(CC)c(O)cc6O)cc5)CC4)CC3)CC2)ccc1Nc1ncc2c(n1)N(S(C)(=O)=O)c1ccccc1C(=O)N2C (stereo not shown) [Compound 179, 4-(4-((4-((1-((1-(3-ethoxy-4-((5-methyl-11-(methylsulfonyl)-6-oxo-6,11-dihydro-5H-benzo[e]pyrimido[5,4-b][1,4]diazepin-2-yl)amino)phenyl)piperidin-4-yl)methyl)piperidin-4-yl)methyl)piperazin-1-yl)methyl)phenyl)-5-(5-ethyl-2,4-dihydroxyphenyl)-N-(1,1,1-trifluoropropan-2-yl)-4H-1,2,4-triazole-3-carboxamide 2,2,2-trifluoroacetate]
100 to 1000	< 100	CCOc1cc(N2CCC(CN3CCC(CN4CCN(Cc5ccc(-n6c(C(=O)NC(C)C(F)(F)F)nnc6-c6cc(C(C)C)c(O)cc6O)cc5)CC4)CC3)CC2)ccc1Nc1ncc2c(n1)N(S(C)(=O)=O)c1ccccc1C(=O)N2C (stereo not shown) [Compound 181, 5-(2,4-dihydroxy-5-isopropylphenyl)-4-(4-((4-((1-((1-(3-ethoxy-4-((5-methyl-11-(methylsulfonyl)-6-oxo-6,11-dihydro-5H-benzo[e]pyrimido[5,4-b][1,4]diazepin-2-yl)amino)phenyl)piperidin-4-yl)methyl)piperidin-4-yl)methyl)piperazin-1-yl)methyl)phenyl)-N-(1,1,1-trifluoropropan-2-yl)-4H-1,2,4-triazole-3-carboxamide]
< 100	< 100	CCOc1cc(N2CCC(C(=O)N3CCN(Cc4ccc(-n5c(O)nnc5-c5cc(C(C)C)c(O)cc5O)cc4)CC3)CC2)ccc1Nc1ncc2c(n1)N(S(C)(=O)=O)c1ccccc1C(=O)N2C [Compound 159, 2-((4-(4-(4-(4-(3-(2,4-dihydroxy-5-isopropylphenyl)-5-hydroxy-4H-1,2,4-triazol-4-yl)benzyl)piperazine-1-carbonyl)piperidin-1-yl)-2-ethoxyphenyl)amino)-5-methyl-11-(methylsulfonyl)-5,11-dihydro-6H-benzo[e]pyrimido[5,4-b][1,4]diazepin-6-one]
< 100	< 100	CCOc1cc(N2CCC(C(=O)N3CCN(Cc4ccc(-n5c(C(=O)NCC(F)(F)C(F)(F)F)nnc5-c5cc(C(C)C)c(O)cc5O)cc4)CC3)CC2)ccc1Nc1ncc2c(n1)N(C)c1ccccc1C(=O)N2C [Compound 173, 5-(2,4-dihydroxy-5-isopropylphenyl)-4-(4-((4-(1-(4-((5,11-dimethyl-6-oxo-6,11-dihydro-5H-benzo[e]pyrimido[5,4-b][1,4]diazepin-2-yl)amino)-3-ethoxyphenyl)piperidine-4-carbonyl)piperazin-1-yl)methyl)phenyl)-N-(2,2,3,3,3-pentafluoropropyl)-4H-1,2,4-triazole-3-carboxamide]
100 to 1000	< 100	CCOc1cc(N2CCC(C(=O)NCc3ccc(CN(CC)Cc4ccc(-n5c(O)nnc5-c5cc(C(C)C)c(O)cc5O)cc4)cc3)CC2)ccc1Nc1ncc2c(n1)N(C)c1ccccc1C(=O)N2C [Compound 165, N-(4-(((4-(3-(2,4-dihydroxy-5-isopropylphenyl)-5-hydroxy-4H-1,2,4-triazol-4-yl)benzyl)(ethyl)amino)methyl)benzyl)-1-(4-((5,11-dimethyl-6-oxo-6,11-dihydro-5H-benzo[e]pyrimido[5,4-b][1,4]diazepin-2-yl)amino)-3-ethoxyphenyl)piperidine-4-carboxamide]
100 to 1000	100 to 1000	CCOc1cc(N2CCC(C(=O)NCCOCCOc3ccc(-n4c(O)nnc4-c4cc(CC)c(O)cc4O)cc3)CC2)ccc1Nc1ncc2c(n1)N(C)c1ccccc1C(=O)N2C [Compound 014, 1-(4-((5,11-dimethyl-6-oxo-6,11-dihydro-5H-benzo[e]pyrimido[5,4-b][1,4]diazepin-2-yl)amino)-3-ethoxyphenyl)-N-(2-(2-(4-(3-(5-ethyl-2,4-dihydroxyphenyl)-5-hydroxy-4H-1,2,4-triazol-4-yl)phenoxy)ethoxy)ethyl)piperidine-4-carboxamide]
100 to 1000	< 100	CCOc1cc(N2CCC(CN3CCC4(CC3)CN(Cc3ccc(-n5c(O)nnc5-c5cc(C(C)C)c(O)cc5O)cc3)C4)CC2)ccc1Nc1ncc2c(n1)N(S(C)(=O)=O)c1ccccc1C(=O)N2C [Compound 184, 2-((4-(4-((2-(4-(3-(2,4-dihydroxy-5-isopropylphenyl)-5-hydroxy-4H-1,2,4-triazol-4-yl)benzyl)-2,7-diazaspiro[3.5]nonan-7-yl)methyl)piperidin-1-yl)-2-ethoxyphenyl)amino)-5-methyl-11-(methylsulfonyl)-5,11-dihydro-6H-benzo[e]pyrimido[5,4-b][1,4]diazepin-6-one]
< 100	< 100	CCOc1cc(N2CCC(C(=O)NCc3ccc(CN(C)Cc4ccc(-n5c(O)nnc5-c5cc(C(C)C)c(O)cc5O)cc4)cc3)CC2)ccc1Nc1ncc2c(n1)N(S(C)(=O)=O)c1ccccc1C(=O)N2C [Compound 170, N-(4-(((4-(3-(2,4-dihydroxy-5-isopropylphenyl)-5-hydroxy-4H-1,2,4-triazol-4-yl)benzyl)(methyl)amino)methyl)benzyl)-1-(3-ethoxy-4-((5-methyl-11-(methylsulfonyl)-6-oxo-6,11-dihydro-5H-benzo[e]pyrimido[5,4-b][1,4]diazepin-2-yl)amino)phenyl)piperidine-4-carboxamide]
